Assay [1] concerns the target Human norepinephrine transporter (NET) (Homo sapiens, UniProt P23975). The assay is described as follows: Binding assay to human norepinephrine transporter (NET), [3H]-Nisoxetin. The following applies: human NET enriched membranes, 5 nM [3H]-Nisoxetin; Ki as class symbol. How it is done:
Binding Assay to Human Norepinephrine Transporter (NET).
Human norepinephrine transporter (NET) enriched membranes (5 μg) were incubated with 5 nM of radiolabeled [3H]-Nisoxetin in assay buffer containing 50 mM Tris-HCl, 120 mM NaCl, 5 mM KCl, pH 7.4.
NSB (non specific binding) was measured by adding 10 μM of desipramine. The binding of the test compound was measured at five different concentrations.. After 60 min incubation at 4° C., binding reaction was terminated by filtering through Multiscreen GF/C (Millipore) presoaked in 0.5% polyethyleneimine in Vacuum Manifold Station, followed by 3 washes with ice-cold filtration buffer containing 50 mM Tris-HCl, 0.9% NaCl, pH 7.4.
Filter plates were dried at 60° C. for 1 hour and 30 μl of scintillation cocktail were added to each well before radioactivity reading.

Assay [2] concerns the target Human α2δ-1 subunit of Cav2.2 calcium channel (Homo sapiens, UniProt P54289). The assay is described as follows: Human α2δ-1 subunit of Cav2.2 calcium channel assay, [3H]-Gabapentin binding. Particulars: human α2δ-1 enriched membranes, 15 nM [3H]-Gabapentin; Ki as class symbol. On the procedure: Human α2δ-1 Subunit of Cav2.2 Calcium Channel Assay
Human α2δ-1 enriched membranes (2.5 μg) were incubated with 15 nM of radiolabeled [3H]-Gabapentin in assay buffer containing Hepes-KOH 10 mM, pH 7.4. NSB (non specific binding) was measured by adding 10 μM pregabalin. The binding of the test compound was measured at five different concentrations. After 60 min incubation at 27° C., binding reaction was terminated by filtering through Multiscreen GF/C (Millipore) presoaked in 0.5% polyethyleneimine in Vacuum Manifold Station, followed by 3 washes with ice-cold filtration buffer containing 50 mM Tris-HCl, pH 7.4. Filter plates were dried at 60° C. for 1 hour and 30 μl of scintillation cocktail were added to each well before radioactivity reading. Readings were performed in a Trilux 1450 Microbeta radioactive counter (Perkin Elmer).

The Ki is a measure of affinity in units of concentration, obtained from inhibition or displacement.

Human norepinephrine transporter (NET), sequence (P23975 whole entry): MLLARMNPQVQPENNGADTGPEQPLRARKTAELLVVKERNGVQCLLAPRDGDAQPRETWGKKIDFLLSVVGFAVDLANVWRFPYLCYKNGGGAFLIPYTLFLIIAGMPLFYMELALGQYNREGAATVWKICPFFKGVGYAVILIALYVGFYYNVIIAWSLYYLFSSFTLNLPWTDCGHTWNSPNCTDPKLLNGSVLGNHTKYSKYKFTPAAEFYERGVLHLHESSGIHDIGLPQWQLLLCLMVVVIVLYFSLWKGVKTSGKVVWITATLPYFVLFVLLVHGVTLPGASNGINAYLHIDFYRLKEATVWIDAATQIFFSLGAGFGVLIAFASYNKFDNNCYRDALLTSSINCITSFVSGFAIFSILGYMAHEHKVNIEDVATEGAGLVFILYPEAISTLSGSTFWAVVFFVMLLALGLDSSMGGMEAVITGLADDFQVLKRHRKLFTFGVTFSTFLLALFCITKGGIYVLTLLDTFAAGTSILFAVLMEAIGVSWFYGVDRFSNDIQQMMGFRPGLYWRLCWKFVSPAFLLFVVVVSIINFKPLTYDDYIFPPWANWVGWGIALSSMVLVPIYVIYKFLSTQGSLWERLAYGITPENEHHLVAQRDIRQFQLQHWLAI
Human α2δ-1 subunit of Cav2.2 calcium channel, sequence (P54289 25-1103): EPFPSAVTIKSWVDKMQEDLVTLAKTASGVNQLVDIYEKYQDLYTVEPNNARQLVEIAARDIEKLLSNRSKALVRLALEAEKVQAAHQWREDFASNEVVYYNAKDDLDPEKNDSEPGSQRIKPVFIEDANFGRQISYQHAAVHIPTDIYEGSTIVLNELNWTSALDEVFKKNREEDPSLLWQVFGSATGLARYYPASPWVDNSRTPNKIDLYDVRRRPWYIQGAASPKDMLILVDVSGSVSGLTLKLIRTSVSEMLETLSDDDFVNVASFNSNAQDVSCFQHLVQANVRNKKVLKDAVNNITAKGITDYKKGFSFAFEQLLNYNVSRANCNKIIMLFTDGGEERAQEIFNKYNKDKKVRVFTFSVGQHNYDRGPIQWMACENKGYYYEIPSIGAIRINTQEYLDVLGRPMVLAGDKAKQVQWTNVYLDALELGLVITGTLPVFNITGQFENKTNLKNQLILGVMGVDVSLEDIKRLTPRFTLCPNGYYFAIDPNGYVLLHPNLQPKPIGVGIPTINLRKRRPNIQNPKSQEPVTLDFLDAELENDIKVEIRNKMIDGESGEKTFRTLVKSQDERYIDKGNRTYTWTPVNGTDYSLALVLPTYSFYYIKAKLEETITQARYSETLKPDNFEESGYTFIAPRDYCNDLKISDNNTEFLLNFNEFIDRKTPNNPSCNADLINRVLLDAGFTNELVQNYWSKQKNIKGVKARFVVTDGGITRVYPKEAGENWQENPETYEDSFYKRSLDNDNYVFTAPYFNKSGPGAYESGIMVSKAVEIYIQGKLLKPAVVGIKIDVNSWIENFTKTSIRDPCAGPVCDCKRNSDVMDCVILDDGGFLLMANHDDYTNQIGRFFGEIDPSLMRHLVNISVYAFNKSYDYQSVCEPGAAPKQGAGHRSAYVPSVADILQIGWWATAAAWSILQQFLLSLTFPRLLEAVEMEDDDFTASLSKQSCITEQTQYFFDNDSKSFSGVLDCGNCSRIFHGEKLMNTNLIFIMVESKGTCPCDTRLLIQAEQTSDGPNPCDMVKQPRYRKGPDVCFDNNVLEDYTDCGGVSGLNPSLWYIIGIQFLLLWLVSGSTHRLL

As to `CCOc1ccc(-n2nc3c(N(C)Cc4ncccn4)nnc(C)c3c2C)c(F)c1` [Example 26, 2-(4-ethoxy-2-fluorophenyl)-N,3,4-trimethyl-N-(pyrimidin-2-ylmethyl)-2H-pyrazolo[3,4-d]pyridazin-7-amine], the Ki is over 1 µM in assay [1] and 0.1 to 0.5 µM in assay [2].

As for `CCOc1ccc(-n2nc3c(N(C)Cc4cnccn4)nnc(C)c3c2C)c(F)c1` [Example 35, 2-(4-ethoxy-2-fluorophenyl)-N,3,4-trimethyl-N-(pyrazin-2-ylmethyl)-2H-pyrazolo[3,4-d]pyridazin-7-amine], the Ki is over 1 µM in assay [1] and 0.1 to 0.5 µM in assay [2].

As for `CCOc1ccc(-n2nc3c(NCc4ccccn4)nnc(C)c3c2C)c(F)c1` [Example 14, 2-(4-ethoxy-2-fluorophenyl)-3,4-dimethyl-N-(pyridin-2-ylmethyl)-2H-pyrazolo[3,4-d]pyridazin-7-amine], the inhibitory constant (Ki) in assay [1] was over 1 µM; in assay [2], 0.1 to 0.5 µM.

Take `CCOc1ccc(-n2nc3c(NCc4ccccc4CO)nnc(C)c3c2C)c(F)c1` [Example 37, (2-(((2-(4-ethoxy-2-fluorophenyl)-3,4-dimethyl-2H-pyrazolo[3,4-d]pyridazin-7-yl)amino)methyl)phenyl)methanol]: the Ki in assay [1] was over 1 µM; in assay [2], 0.1 to 0.5 µM.

Consider `CCOc1ccc(-n2nc3c(N(C)Cc4ccon4)nnc(C)c3c2C)c(F)c1` [Example 27, 2-(4-ethoxy-2-fluorophenyl)-N-(isoxazol-3-ylmethyl)-N,3,4-trimethyl-2H-pyrazolo[3,4-d]pyridazin-7-amine], for which the Ki in assay [1] was over 1 µM; in assay [2], 0.5 to 5 µM.

With `CCOc1ccc(-n2nc3c(N(C)Cc4cccc(OC)n4)nnc(C)c3c2C)c(F)c1` [Example 30, 2-(4-ethoxy-2-fluorophenyl)-N-((6-methoxypyridin-2-yl)methyl)-N,3,4-trimethyl-2H-pyrazolo[3,4-d]pyridazin-7-amine], the Ki in assay [1] was in the range of 0.5 to 1 µM; in assay [2], 0.1 to 0.5 µM.

On to `CCOc1ccc(-n2nc3c(N(C)Cc4cnc[nH]4)nnc(C)c3c2C)c(F)c1` [Example 24, N-((1H-imidazol-5-yl)methyl)-2-(4-ethoxy-2-fluorophenyl)-N,3,4-trimethyl-2H-pyrazolo[3,4-d]pyridazin-7-amine], for which the Ki was over 1 µM in assay [1] and 0.1 to 0.5 µM in assay [2].

Consider `CCOc1ccc(-n2nc3c(N(CCO)Cc4ccccn4)nnc(C)c3c2C)c(F)c1` [Example 56, 2-((2-(4-ethoxy-2-fluorophenyl)-3,4-dimethyl-2H-pyrazolo[3,4-d]pyridazin-7-yl)(pyridin-2-ylmethyl)amino)ethanol], for which the Ki in assay [1] was in the range of 0.5 to 1 µM; in assay [2], 0.5 to 5 µM.

As to `CCOc1ccc(-n2nc3c(NCC(CO)Cc4ccccc4)nnc(C)c3c2C)c(F)c1` (stereo not drawn) [Example 12, 2-benzyl-3-((2-(4-ethoxy-2-fluorophenyl)-3,4-dimethyl-2H-pyrazolo[3,4-d]pyridazin-7-yl)amino)propan-1-ol], the inhibition constant (Ki) in assay [1] and in assay [2] was 0.1 to 0.5 µM in each case.

On to `COc1ccc(-n2nc3c(N(C)Cc4ccccn4)nnc(C)c3c2C)cc1` [Example 48, 2-(4-methoxyphenyl)-N,3,4-trimethyl-N-(pyridin-2-ylmethyl)-2H-pyrazolo[3,4-d]pyridazin-7-amine], for which the figures for the Ki in assay [1] and in assay [2] were over 1 µM and 0.5 to 5 µM, respectively.

Regarding `CCOc1ccc(-n2nc3c(N(C)Cc4ccccc4CNC)nnc(C)c3c2C)c(F)c1` [Example 43, 2-(4-ethoxy-2-fluorophenyl)-N,3,4-trimethyl-N-(2-((methylamino)methyl)benzyl)-2H-pyrazolo[3,4-d]pyridazin-7-amine], the Ki fell in the range of 0.1 to 0.5 µM in assay [1] and 0.5 to 5 µM in assay [2].

As to `Cc1nnc(N(C)Cc2ccccn2)c2nn(-c3ccc(O)cc3)c(C)c12` [Example 47, 4-(3,4-dimethyl-7-(methyl(pyridin-2-ylmethyl)amino)-2H-pyrazolo[3,4-d]pyridazin-2-yl)phenol], the inhibition constant Ki was over 1 µM in assay [1] and at least 5 µM in assay [2].

With `CCOc1ccc(-n2nc3c(N(C)CCc4ccccc4)nnc(C)c3c2C)c(F)c1` [Example 3, 2-(4-ethoxy-2-fluorophenyl)-N,3,4-trimethyl-N-phenethyl-2H-pyrazolo[3,4-d]pyridazin-7-amine], the Ki in assay [1] and in assay [2] was 0.1 to 0.5 µM each time.

Turning to `CCOc1ccc(-n2nc3c(N(C)CCC(N)c4ccccc4)nnc(C)c3c2C)c(F)c1` (stereo not drawn) [Example 39, N1-(2-(4-ethoxy-2-fluorophenyl)-3,4-dimethyl-2H-pyrazolo[3,4-d]pyridazin-7-yl)-N1-methyl-3-phenylpropane-1,3-diamine], the figures for the Ki in assay [1] and in assay [2] were 0.5 to 1 µM and at least 5 µM, respectively.

With `CCOc1ccc(-n2nc3c(N(CCO)Cc4ccncc4)nnc(C)c3c2C)c(F)c1` [Example 53, 2-((2-(4-Ethoxy-2-fluorophenyl)-3,4-dimethyl-2H-pyrazolo[3,4-d]pyridazin-7-yl)(pyridin-4-ylmethyl)amino)ethanol], the Ki in assay [1] was over 1 µM; in assay [2], at least 5 µM.

With `CCOc1ccc(-n2nc3c(NCc4ccccc4)nnc(C)c3c2C)c(F)c1` [Example 13, N-benzyl-2-(4-ethoxy-2-fluorophenyl)-3,4-dimethyl-2H-pyrazolo[3,4-d]pyridazin-7-amine], the inhibition constant Ki lay in the range of 0.5 to 1 µM in assay [1] and 0.1 to 0.5 µM in assay [2].

In the case of `CCOc1ccc(-n2nc3c(NCCc4ccccn4)nnc(C)c3c2C)c(F)c1` [Example 15, 2-(4-ethoxy-2-fluorophenyl)-3,4-dimethyl-N-(2-(pyridin-2-yl)ethyl)-2H-pyrazolo[3,4-d]pyridazin-7-amine], the inhibition constant (Ki) in assay [1] is over 1 µM; in assay [2], 0.1 to 0.5 µM.

On to `CCOc1ccc(-n2nc3c(N(C)Cc4ccccc4O)nnc(C)c3c2C)c(F)c1` [Example 23, 2-(((2-(4-ethoxy-2-fluorophenyl)-3,4-dimethyl-2H-pyrazolo[3,4-d]pyridazin-7-yl)(methyl)amino)methyl)phenol], for which the inhibitory constant (Ki) in assay [1] was in the range of 0.5 to 1 µM; in assay [2], 0.1 to 0.5 µM.

As to `CCOc1ccc(-n2nc3c(NCC(O)Cc4ccccc4)nnc(C)c3c2C)c(F)c1` (stereo not drawn) [Example 19, 1-((2-(4-ethoxy-2-fluorophenyl)-3,4-dimethyl-2H-pyrazolo[3,4-d]pyridazin-7-yl)amino)-3-phenylpropan-2-ol], the inhibitory constant (Ki) was over 1 µM in assay [1] and 0.1 to 0.5 µM in assay [2].

On to `CCOc1ccc(-n2nc3c(N(C)Cc4cccnc4)nnc(C)c3c2C)c(F)c1` [Example 10, 2-(4-ethoxy-2-fluorophenyl)-N,3,4-trimethyl-N-(pyridin-3-ylmethyl)-2H-pyrazolo[3,4-d]pyridazin-7-amine], for which the Ki is 0.5 to 1 µM in assay [1] and 0.1 to 0.5 µM in assay [2].

On to `CCOc1ccc(-n2nc3c(N(C)CCCc4ccccc4)nnc(C)c3c2C)c(F)c1` [Example 4, 2-(4-ethoxy-2-fluorophenyl)-N,3,4-trimethyl-N-(3-phenylpropyl)-2H-pyrazolo[3,4-d]pyridazin-7-amine], for which the Ki in assay [1] and in assay [2] was 0.1 to 0.5 µM throughout.

Take `CCOc1ccc(-n2nc3c(NCc4ncccc4C(F)(F)F)nnc(C)c3c2C)c(F)c1` [Example 20, 2-(4-ethoxy-2-fluorophenyl)-3,4-dimethyl-N-((3-(trifluoromethyl)pyridin-2-yl)methyl)-2H-pyrazolo[3,4-d]pyridazin-7-amine]: the inhibitory constant (Ki) was over 1 µM in assay [1] and 0.1 to 0.5 µM in assay [2].

As for `CCOc1ccc(-n2nc3c(N(C)CCc4ccccn4)nnc(C)c3c2C)c(F)c1` [Example 16, 2-(4-ethoxy-2-fluorophenyl)-N,3,4-trimethyl-N-(2-(pyridin-2-yl)ethyl)-2H-pyrazolo[3,4-d]pyridazin-7-amine], the Ki was over 1 µM in assay [1] and 0.1 to 0.5 µM in assay [2].

Turning to `COc1ccc(-n2nc3c(N(C)Cc4ccccn4)nnc(C)c3c2C)c(F)c1` [Example 45, 2-(2-fluoro-4-methoxyphenyl)-N,3,4-trimethyl-N-(pyridin-2-ylmethyl)-2H-pyrazolo[3,4-d]pyridazin-7-amine], the values for the Ki in assay [1] and in assay [2] were over 1 µM and at least 5 µM, respectively.

As for `CCOc1ccc(-n2nc3c(N(C)C(CCO)c4ccccc4)nnc(C)c3c2C)c(F)c1` (stereo not drawn) [Example 54, 3-((2-(4-ethoxy-2-fluorophenyl)-3,4-dimethyl-2H-pyrazolo[3,4-d]pyridazin-7-yl)(methyl)amino)-3-phenylpropan-1-ol], the inhibitory constant (Ki) is over 1 µM in assay [1] and 0.5 to 5 µM in assay [2].

As to `CCOc1ccc(-n2nc3c(N(C)Cc4ncc[nH]4)nnc(C)c3c2C)c(F)c1` [Example 25, N-((1H-imidazol-2-yl)methyl)-2-(4-ethoxy-2-fluorophenyl)-N,3,4-trimethyl-2H-pyrazolo[3,4-d]pyridazin-7-amine], the Ki is over 1 µM in assay [1] and 0.5 to 5 µM in assay [2].

For `CCOc1ccc(-n2nc3c(NCCC(O)c4ccccc4)nnc(C)c3c2C)c(F)c1` (stereo not drawn) [Example 7, 3-((2-(4-ethoxy-2-fluorophenyl)-3,4-dimethyl-2H-pyrazolo[3,4-d]pyridazin-7-yl)amino)-1-phenylpropan-1-ol], the inhibition constant Ki in assay [1] and in assay [2] was 0.1 to 0.5 µM throughout.

The values above are taken from US20200199127A1, “(HETERO)ARYLALKYLAMINO-PYRAZOLOPYRIDAZINE DERIVATIVES HAVING MULTIMODAL ACTIVITY AGAINST PAIN” (priority 2017, published 2020).
